Laboratory results reported in PubChem BioAssay AID1645848.
Values after ≈ are worked out from the molar mass of the structure shown.

Settings: buffer; pH 7.4; 6.0 h; 150.0 µM

| solubility kinetic | Compound |
| --- | --- |
| < 1 µg/mL | O=S(=O)(c1ccc2ccccc2c1)N1CCN(c2nc(-c3cccs3)nc3ccccc23)CC1 |
| 1.53 µg/mL (≈ 4.7 µM) | CC(C)Oc1cccc(C2CC(=O)Nc3cc4c(cc32)OCO4)c1 (stereo not given) |
| 42.6 µg/mL (≈ 91.4 µM) | COc1ccccc1S(=O)(=O)Nc1cnccc1C(=O)Nc1nc(-c2ccccc2)cs1 |
| < 1 µg/mL | COc1cccc(CNc2ccc([S+](=O)([O-])Nc3ccccc3)cc2)c1Cl |
| > 49 µg/mL | Cc1cc(-c2nnc3n2CCCCC3)c(C)n1-c1cccc(C#N)c1 |
| 27.5 µg/mL (≈ 82.7 µM) | O=C(c1ccc2ccccc2c1)N1CCN(c2ccc(O)cc2)CC1 |
| 32.3 µg/mL (≈ 39.3 µM) | CO[C@@H]1/C=C\O[C@@]2(C)Oc3c(C)c(O)c4c(c3C2=O)C(=N[C@H]2CC[C@H](O)O[C@@H]2C)C=C(NC(=O)/C(C)=C\C(=O)[C@@H]2C[C@@H]2[C@@H](O)[C@H](C)[C@@H](O)[C@H](C)[C@H](OC(C)=O)[C@@H]1C)C4=O |
| > 60 µg/mL | COc1ccc(Cn2c(C(=O)O)c(CNCc3ccco3)c3ccc(C)cc32)cc1 |
| < 1 µg/mL | Cc1sc(NC(=O)Cc2ccc3c(c2)OCO3)nc1-c1ccc2c(c1)CCN2C(=O)c1ccccc1Cl |
| 4.77 µg/mL (≈ 10.2 µM) | Cc1noc(C)c1Cc1ccc(C(=O)N2CCc3c(nc4cc(-c5ccccc5)[nH]n4c3=O)C2)o1 |
| < 1 µg/mL | CC(=O)NC(c1cccs1)c1cc(Br)c2cccnc2c1O (stereo not given) |
| 19.7 µg/mL (≈ 44.3 µM) | Cc1cc(C)nc(NC(=S)N2CCN(c3cc(C(F)(F)F)nc4ccccc34)CC2)c1 |
| < 1 µg/mL | O=C1c2ccccc2C2=Nc3ccccc3SC(c3ccc(Cl)cc3)C12 (stereo not given) |
| 43.4 µg/mL (≈ 111 µM) | CCn1c(C)c(C(C)=O)c(C)c1C(=O)Nc1cccc([S+](=O)([O-])N(C)C)c1 |
| < 1 µg/mL | O=C(NC1CCCc2c1[nH]c1ccc(Cl)cc21)c1ccncc1 (stereo not given) |
| 34.6 µg/mL (≈ 100 µM) | NC(=O)C1CCN(c2nc(-c3ccc4c(c3)OCCO4)cs2)CC1 |
| < 1 µg/mL | CC(C)Oc1ccccc1C(=O)Nc1nc(-c2ccccc2)cs1 |
| 35.9 µg/mL (≈ 106 µM) | CC(C)CNc1ccnc(NCc2csc(-c3ccccc3)n2)n1 |
| 39.2 µg/mL (≈ 104 µM) | Cc1cn2c(N)c(Cl)cc(C(=O)NCC3CCN(CC(C)C)CC3)c2n1 |
| < 1 µg/mL | Cc1ccccc1C(=O)Nc1nc2c(s1)CC(C(C)(C)C)CC2 (stereo not given) |
| < 1 µg/mL | Fc1ccc(Nc2nc(-c3ccnc4ccccc34)nc3ccccc23)cc1F |
| > 55 µg/mL | NC(=O)c1ccc(-c2nc3c([nH]2)CN(C(=O)CN2CCOCC2)CC3)cc1 |
| < 1 µg/mL | Cc1ccc(NS(=O)(=O)c2ccc(C(=O)Nc3nc(-c4ccccc4)cs3)cc2)cc1 |

| solubility kinetic | Compound |
| --- | --- |
| < 1 µg/mL | CN1C(=O)c2ccccc2[S@](=O)c2ccc(C(=O)NCc3ccc(Br)cc3)cc21 |
| 0.521 µg/mL (≈ 1.06 µM) | Cc1ccc(S(=O)(=O)Nc2cnccc2C(=O)Nc2nc(-c3cc4ccccc4o3)cs2)cc1 |
| 6.89 µg/mL (≈ 15.7 µM) | Cc1cc(C)nc(NC(=S)N2CCN(c3ccc(C(F)(F)F)cc3[N+](=O)[O-])CC2)c1 |
| > 36 µg/mL | CC1(C)C(=O)NC2=C1C(=O)C(=O)c1ccccc12 |
| 20.5 µg/mL (≈ 55.9 µM) | NC(=O)C1CCN(c2nc(-c3cccc(Br)c3)cs2)CC1 |
| < 1 µg/mL | COc1ccc(-n2c(C)c(C(C)=O)c3cc(OC(=O)COc4ccccc4)ccc32)cc1 |
| < 1 µg/mL | Cn1nnnc1Sc1ncnc2scc(-c3cc4ccccc4o3)c12 |
| 17.9 µg/mL (≈ 58 µM) | C[C@@]1(c2ncncc2F)NC(=O)c2cc(-c3cn[nH]c3)ccc21 |
| 27.3 µg/mL (≈ 101 µM) | O=c1c(-c2ccc(O)cc2)coc2cc(O)cc(O)c12 |
| 2.55 µg/mL (≈ 6.2 µM) | O=C(Nc1ccc(S(=O)(=O)Nc2nccs2)cc1)c1ccnc2ccccc12 |
| < 1 µg/mL | O=S(=O)(Nc1nccs1)c1ccc(NCc2ccc(Br)cc2O)cc1 |
| < 1 µg/mL | Cc1csc2nc(-c3cccc(NC(=O)c4ccccc4Cl)c3)cn12 |
| 3.41 µg/mL (≈ 12.6 µM) | Cc1cc2ccccc2n1CC(=O)NC1CCCCC1 |
| 31.6 µg/mL (≈ 84.1 µM) | Cc1cc(-c2nnc3n2CCCCC3)c(C)n1-c1ccc(Cl)c(Cl)c1 |
| 2.61 µg/mL (≈ 6.79 µM) | COc1ccccc1CNS(=O)(=O)c1ccc(-c2cnc(C3CC3)o2)cc1 |
| 2.68 µg/mL (≈ 7.45 µM) | CC(C)COc1ccc(-c2csc(N3CCC(C(N)=O)CC3)n2)cc1 |
| < 1 µg/mL | COc1cccc(Nc2nc(-c3ccncc3)nc3ccccc23)c1 |
| 1.73 µg/mL (≈ 5.77 µM) | O=c1cc(/C=C/c2c(F)cccc2Cl)[nH]c2ccccc12 |
| 7.82 µg/mL (≈ 23.5 µM) | Cc1ccc(NS(=O)(=O)c2ccc3c(c2)NC(=O)CO3)cc1C |
| 6.11 µg/mL (≈ 18.6 µM) | CC(=O)c1ccc(-c2csc(N3CCC(C(N)=O)CC3)n2)cc1 |
| 47.5 µg/mL (≈ 125 µM) | Cc1ccc(NC(=O)c2ccncc2NS(=O)(=O)c2ccc(C)cc2)cc1 |
| 54.8 µg/mL (≈ 114 µM) | COc1ccc(-c2csc(NC(=O)c3ccncc3NS(=O)(=O)c3ccc(C)cc3)n2)cc1 |
| < 1 µg/mL | O=S(=O)(Nc1ccc(-c2ccccc2)cc1)c1ccc(NCc2cccc(Cl)c2O)cc1 |

| solubility kinetic | Compound |
| --- | --- |
| < 1 µg/mL | CCNC(=O)N1CCCN(c2ccc(C(=O)NCCc3ccc(Cl)cc3Cl)cc2NC(=O)c2cccc(Cl)c2)CC1 |
| < 1 µg/mL | Cc1ccc(C(=O)NC2CCN(c3cnn(CC4CC4)c(=O)c3)CC2)cc1C |
| > 100 µg/mL | Cc1cc(C)nc(NS(=O)(=O)c2ccc(NC(=S)NC(=O)COc3ccc(Br)cc3Cl)cc2)n1 |
| < 1 µg/mL | Clc1cccc(Nc2nc(-c3ccncc3)nc3ccccc23)c1 |
| > 69 µg/mL | CCNC(=O)c1noc(-c2cc(C(C)C)c(O)cc2O)c1-c1ccc(CN2CCOCC2)cc1 |
| 1.03 µg/mL (≈ 2.24 µM) | COc1cccc(C(=O)Nc2nc(-c3nnn(-c4ccccc4C(F)(F)F)c3C)ns2)c1 |
| 13.2 µg/mL (≈ 33.2 µM) | Cc1cnc(-c2ccccc2C(C)(C)C)nc1NCc1ccc(-n2ccnn2)cc1 |
| 40.9 µg/mL (≈ 97 µM) | CC(C)c1ccccc1-c1nc2c(c(NCc3ccc(-c4cccnc4)cc3)n1)CNC2 |
| > 45 µg/mL | Cn1cnc2c(F)c(Nc3ccc(Br)cc3Cl)c(C(=O)NOCCO)cc21 |
| 44.6 µg/mL (≈ 93.9 µM) | CC[C@H]1CN2CCC3CC(OC)C(OC)CC3[C@@H]2C[C@@H]1C[C@H]1NCCC2=C1CC(OC)=C(O)C2 (stereo not given in full) |
| < 1 µg/mL | O=[N+]([O-])c1cccc(CSc2nc3ncc(Br)cc3[nH]2)c1 |
| < 1 µg/mL | CCN(C(=O)C(NS(=O)(=O)c1ccc(Br)s1)c1ccccc1)c1ccc(C)c(C)c1 (stereo not given) |
| < 1 µg/mL | CCn1c(-c2nonc2N)nc2cnc(Oc3cccc(NC(=O)c4ccc(OCCN5CCOCC5)cc4)c3)cc21 |
| 5.17 µg/mL (≈ 16.3 µM) | NS(=O)(=O)c1ccc(NC(=O)c2cc3ncccn3n2)cc1 |
| < 1 µg/mL | CCc1ccccc1-n1c(SCC(=O)Nc2ccc(C)cc2)nc2n[nH]c(C)c2c1=N |
| < 1 µg/mL | O=C1CCCC2=C1C1(CCCC1)N=C(Nc1nc3cc(Cl)ccc3o1)N2 |
| < 1 µg/mL | CCS(=O)(=O)c1ncc(N(Cc2ccc(F)cc2)Cc2ccco2)c(C(=O)Nc2cc(C)ccc2C)n1 |
| > 32 µg/mL | Cc1ccc(C)n1-c1cccc(C(=O)O)c1 |
| 7.26 µg/mL (≈ 19.1 µM) | COc1cc(C(=O)NC2CCCc3c2[nH]c2ccccc32)cc(OC)c1OC (stereo not given) |
| < 1 µg/mL | Cc1ccc(-c2cc(C(=O)NCc3cnn(C)c3)c3cc(Br)ccc3n2)cc1 |
| 16.7 µg/mL (≈ 59.5 µM) | O=c1cc(N2CCOCC2)oc2c1ccc1ccccc12 |
| < 1 µg/mL | Fc1cc(Nc2nc(-c3ccncc3)nc3ccccc23)ccc1-c1cccc(OC(F)(F)F)c1 |

| Compound | solubility kinetic |
| --- | --- |
| CCOC(=O)c1ccnc2cc(C(OCCN3CCCCC3)c3ccccc3Cl)sc12 (stereo not given) | 56.3 µg/mL (≈ 123 µM) |
| Cc1c([C@@H](C)C2NC[C@H](C)C[C@@H]2O)ccc2c1C[C@@H]1[C@H]2CC=C2C[C@@H](O)CC[C@@]21C (stereo not given in full) | 40.9 µg/mL (≈ 99.7 µM) |
